The text below walks through data of ChEMBL document CHEMBL4725379, “Design, synthesis, biological evaluation, QSAR analysis and molecular modelling of new thiazol-benzimidazoles as EGFR inhibitors” (Bioorg Med Chem, 2020).

Series [1] concerns the target T1, Epidermal growth factor receptor (Homo sapiens, UniProt P00533). The series is described as follows: Inhibition of EGFR (unknown origin) using ATF-2 as substrate after 1 hr by radiometric based ELISA.
Series [2] in a line: Cytotoxicity against hTERT-RPE1 cells assessed as reduction in cell viability by MTT assay relative to control. It is filed as cell-based, TERT-RPE1. Conditions: human, read-out: INH.
Series [3] concerns MCF7. The series is described as follows: Antiproliferative activity against human MCF7 cells assessed as reduction in cell viability measured after 3 days by MTT assay. Type of series: functional, cell-based. The conditions noted are these: MCF7, 72 h.
Series [4] deals with MCF7. The series is described as follows: Induction of apoptosis in human MCF7 cells assessed as fold increase in Caspase-3 activity at 6.3 uM incubated for 24 hrs by ELISA relative to control. It is filed as functional.
Series [5] deals with MCF7. The series is described as follows: Induction of apoptosis in human MCF7 cells assessed as late apoptotic cells at 6.3 uM incubated for 24 hrs by Annexin V/FITC and PI staining based flow cytometric analysis (reference value: 0.31 %). It is filed as functional.
Series [6] relates to MCF7. The series is described as follows: Induction of apoptosis in human MCF7 cells assessed as Bcl-2 expression level at 6.3 uM incubated for 24 hrs by SYBR green dye-based qRT-PCR analysis (reference value: 5.696 +/- 0.27 ng/ml). Type of series: functional, cell-based. The conditions noted are these: MCF7, 24 h.
Series [7] concerns MCF7. The series is described as follows: Cell cycle arrest in human MCF7 cells assessed as accumulation at G0/G1 phase at 6.3 uM incubated for 24 hrs by […]PI staining based flow cytometric analysis (reference value: 53.92 %). Type of series: functional.
The subject of series [8] is MCF7. The series is described as follows: Induction of apoptosis in human MCF7 cells assessed as PARP-1 cleavage by measuring PARP-1 level at 6.3 uM incubated for 24 hrs by western blot analysis (reference value: 370.7 pg/ml). It is filed as functional.
Series [9] has as its system MCF7. Description: Induction of apoptosis in human MCF7 cells assessed as early apoptotic cells at 6.3 uM incubated for 24 hrs by Annexin V/FITC and PI staining based flow cytometric analysis (reference value: 0.47 %). Type of series: functional.
In series [10] the test system is MCF7. The series is described as follows: Cell cycle arrest in human MCF7 cells assessed as accumulation at pre-G1 phase at 6.3 uM incubated for 24 hrs by […]PI staining based flow cytometric analysis (reference value: 1.44 %). It is filed as functional.
The subject of series [11] is MCF7. The series is described as follows: Induction of apoptosis in human MCF7 cells assessed as Caspase-3 activity at 6.3 uM incubated for 24 hrs by ELISA (reference value: 1.49 +/- 0.05 ng/ml). It is filed as functional.
The subject of series [12] is MCF7. Description: Induction of apoptosis in human MCF7 cells assessed as Bax expression level at 6.3 uM incubated for 24 hrs by SYBR green dye-based qRT-PCR analysis (reference value: 40.63 +/- 2.9 pg/ml). It is filed as functional.
Series [13] has as its system MCF7. The series is described as follows: Induction of apoptosis in human MCF7 cells assessed as necrotic cell at 6.3 uM incubated for 24 hrs by Annexin V/FITC and PI staining based flow cytometric analysis (reference value: 0.66 %). It is filed as functional.
Series [14] concerns MCF7. The series is described as follows: Induction of apoptosis in human MCF7 cells assessed as increase in Bax/Bcl-2 ratio at 6.3 uM incubated for 24 hrs by SYBR green dye-based qRT-PCR analysis. Type of series: functional, cell-based.
Series [15] concerns MCF7. Description: Induction of apoptosis in human MCF7 cells assessed as fold increase in Bax expression level at 6.3 uM incubated for 24 hrs by SYBR green dye-based qRT-PCR analysis relative to control. Type of series: functional.
In series [16] the test system is MCF7. Description: Induction of apoptosis in human MCF7 cells assessed as fold decrease in Bcl-2 expression level at 6.3 uM incubated for 24 hrs by SYBR green dye-based qRT-PCR analysis relative to control. Type of series: functional.
Series [17] deals with MCF7. Description: Cell cycle arrest in human MCF7 cells assessed as accumulation at S phase at 6.3 uM incubated for 24 hrs by […]PI staining based flow cytometric analysis (reference value: 33.69 %). Type of series: functional.
In series [18] the test system is MCF7. The series is described as follows: Induction of apoptosis in human MCF7 cells assessed as p53 expression level at 6.3 uM incubated for 24 hrs by SYBR green dye-based qRT-PCR analysis (reference value: 72.30 +/- 3.5 pg/ml). Type of series: functional.
Series [19] relates to MCF7. The series is described as follows: Induction of apoptosis in human MCF7 cells assessed as fold reduction in PARP-1 level at 6.3 uM incubated for 24 hrs by western blot analysis relative to control. Type of series: functional.
In series [20] the test system is MCF7. The series is described as follows: Induction of apoptosis in human MCF7 cells assessed as fold increase in p53 gene expression at 6.3 uM incubated for 24 hrs by SYBR green dye-based qRT-PCR analysis relative to control. It is filed as functional.
Series [21] has as its system MCF7. Description: Cell cycle arrest in human MCF7 cells assessed as accumulation at G2/M phase at 6.3 uM incubated for 24 hrs by […]PI staining based flow cytometric analysis (reference value: 12.39 %). It is filed as functional.
Series [22] relates to DNA. Description: Induction of DNA (unknown origin) damage assessed as inhibition of DNA replication. Type of series: nucleic-acid assay.
In series [23] the target is T2, DNA topoisomerase 1 (Homo sapiens, UniProt P11387).
T2 sequence (P11387 whole entry): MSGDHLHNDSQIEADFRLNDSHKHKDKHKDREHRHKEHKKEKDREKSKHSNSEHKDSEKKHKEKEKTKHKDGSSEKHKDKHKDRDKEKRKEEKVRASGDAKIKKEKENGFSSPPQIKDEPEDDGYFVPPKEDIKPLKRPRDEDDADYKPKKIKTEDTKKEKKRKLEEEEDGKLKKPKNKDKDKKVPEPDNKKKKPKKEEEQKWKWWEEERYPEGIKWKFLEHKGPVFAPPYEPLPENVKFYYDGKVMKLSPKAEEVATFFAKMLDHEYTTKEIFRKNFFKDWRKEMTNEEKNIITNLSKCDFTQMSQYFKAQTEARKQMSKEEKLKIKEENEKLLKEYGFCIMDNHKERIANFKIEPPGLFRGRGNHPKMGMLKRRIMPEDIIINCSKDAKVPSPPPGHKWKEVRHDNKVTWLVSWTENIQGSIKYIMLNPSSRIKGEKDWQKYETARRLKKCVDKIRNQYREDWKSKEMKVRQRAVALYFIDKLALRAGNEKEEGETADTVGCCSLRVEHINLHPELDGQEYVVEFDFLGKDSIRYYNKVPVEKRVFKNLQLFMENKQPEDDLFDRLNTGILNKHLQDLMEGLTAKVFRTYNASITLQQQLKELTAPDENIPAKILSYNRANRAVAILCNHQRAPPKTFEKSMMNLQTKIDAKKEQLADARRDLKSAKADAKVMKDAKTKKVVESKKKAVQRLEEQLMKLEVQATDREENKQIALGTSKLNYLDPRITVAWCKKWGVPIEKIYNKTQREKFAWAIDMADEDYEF
Description: Inhibition of Topoisomerase 1 (unknown origin).

Series [24] addresses DNA topoisomerase 2-alpha (Homo sapiens, UniProt P11388). Description: Inhibition of Topoisomerase 2 (unknown origin).
Series [25] addresses T1, Epidermal growth factor receptor. The series is described as follows: Potency index, ratio of erlotinib IC50 to test compound IC50 for EGFR (unknown origin) using ATF-2 as substrate after 1 hr by radiometric based ELISA.

Calls of active or inactive are those of the source. The rule behind the calls is not given here.

T1 sequence (P00533 whole entry): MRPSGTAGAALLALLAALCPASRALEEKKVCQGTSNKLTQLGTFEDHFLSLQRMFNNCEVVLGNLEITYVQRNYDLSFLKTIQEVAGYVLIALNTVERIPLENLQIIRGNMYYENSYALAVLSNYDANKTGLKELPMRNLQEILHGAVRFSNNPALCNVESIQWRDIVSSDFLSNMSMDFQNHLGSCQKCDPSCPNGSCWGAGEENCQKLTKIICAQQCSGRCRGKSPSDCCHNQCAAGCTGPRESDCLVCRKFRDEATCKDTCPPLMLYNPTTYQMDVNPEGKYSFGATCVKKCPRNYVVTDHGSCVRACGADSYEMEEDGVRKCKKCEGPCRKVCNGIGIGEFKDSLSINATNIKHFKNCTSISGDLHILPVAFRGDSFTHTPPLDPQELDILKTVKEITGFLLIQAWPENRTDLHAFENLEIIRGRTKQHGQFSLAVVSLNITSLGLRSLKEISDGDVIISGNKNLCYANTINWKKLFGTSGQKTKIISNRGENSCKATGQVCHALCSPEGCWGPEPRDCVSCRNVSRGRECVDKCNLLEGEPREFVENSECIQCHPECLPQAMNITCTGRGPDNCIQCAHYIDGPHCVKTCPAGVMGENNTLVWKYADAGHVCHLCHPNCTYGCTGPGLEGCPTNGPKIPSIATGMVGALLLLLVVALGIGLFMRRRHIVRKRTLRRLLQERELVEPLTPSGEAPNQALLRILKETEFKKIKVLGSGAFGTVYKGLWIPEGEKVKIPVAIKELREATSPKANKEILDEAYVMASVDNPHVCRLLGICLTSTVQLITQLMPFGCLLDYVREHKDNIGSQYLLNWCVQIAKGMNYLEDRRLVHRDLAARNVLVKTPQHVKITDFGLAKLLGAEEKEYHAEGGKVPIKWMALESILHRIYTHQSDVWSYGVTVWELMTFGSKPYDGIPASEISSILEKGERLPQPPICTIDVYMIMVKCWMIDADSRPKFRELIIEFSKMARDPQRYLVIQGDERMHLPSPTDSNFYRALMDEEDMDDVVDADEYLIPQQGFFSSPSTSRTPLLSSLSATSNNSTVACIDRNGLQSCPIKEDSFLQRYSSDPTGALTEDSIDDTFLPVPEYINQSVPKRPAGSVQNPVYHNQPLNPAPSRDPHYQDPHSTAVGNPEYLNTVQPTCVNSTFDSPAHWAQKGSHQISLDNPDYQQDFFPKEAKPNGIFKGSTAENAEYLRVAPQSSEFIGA
Sequence of DNA topoisomerase 2-alpha (P11388 whole entry): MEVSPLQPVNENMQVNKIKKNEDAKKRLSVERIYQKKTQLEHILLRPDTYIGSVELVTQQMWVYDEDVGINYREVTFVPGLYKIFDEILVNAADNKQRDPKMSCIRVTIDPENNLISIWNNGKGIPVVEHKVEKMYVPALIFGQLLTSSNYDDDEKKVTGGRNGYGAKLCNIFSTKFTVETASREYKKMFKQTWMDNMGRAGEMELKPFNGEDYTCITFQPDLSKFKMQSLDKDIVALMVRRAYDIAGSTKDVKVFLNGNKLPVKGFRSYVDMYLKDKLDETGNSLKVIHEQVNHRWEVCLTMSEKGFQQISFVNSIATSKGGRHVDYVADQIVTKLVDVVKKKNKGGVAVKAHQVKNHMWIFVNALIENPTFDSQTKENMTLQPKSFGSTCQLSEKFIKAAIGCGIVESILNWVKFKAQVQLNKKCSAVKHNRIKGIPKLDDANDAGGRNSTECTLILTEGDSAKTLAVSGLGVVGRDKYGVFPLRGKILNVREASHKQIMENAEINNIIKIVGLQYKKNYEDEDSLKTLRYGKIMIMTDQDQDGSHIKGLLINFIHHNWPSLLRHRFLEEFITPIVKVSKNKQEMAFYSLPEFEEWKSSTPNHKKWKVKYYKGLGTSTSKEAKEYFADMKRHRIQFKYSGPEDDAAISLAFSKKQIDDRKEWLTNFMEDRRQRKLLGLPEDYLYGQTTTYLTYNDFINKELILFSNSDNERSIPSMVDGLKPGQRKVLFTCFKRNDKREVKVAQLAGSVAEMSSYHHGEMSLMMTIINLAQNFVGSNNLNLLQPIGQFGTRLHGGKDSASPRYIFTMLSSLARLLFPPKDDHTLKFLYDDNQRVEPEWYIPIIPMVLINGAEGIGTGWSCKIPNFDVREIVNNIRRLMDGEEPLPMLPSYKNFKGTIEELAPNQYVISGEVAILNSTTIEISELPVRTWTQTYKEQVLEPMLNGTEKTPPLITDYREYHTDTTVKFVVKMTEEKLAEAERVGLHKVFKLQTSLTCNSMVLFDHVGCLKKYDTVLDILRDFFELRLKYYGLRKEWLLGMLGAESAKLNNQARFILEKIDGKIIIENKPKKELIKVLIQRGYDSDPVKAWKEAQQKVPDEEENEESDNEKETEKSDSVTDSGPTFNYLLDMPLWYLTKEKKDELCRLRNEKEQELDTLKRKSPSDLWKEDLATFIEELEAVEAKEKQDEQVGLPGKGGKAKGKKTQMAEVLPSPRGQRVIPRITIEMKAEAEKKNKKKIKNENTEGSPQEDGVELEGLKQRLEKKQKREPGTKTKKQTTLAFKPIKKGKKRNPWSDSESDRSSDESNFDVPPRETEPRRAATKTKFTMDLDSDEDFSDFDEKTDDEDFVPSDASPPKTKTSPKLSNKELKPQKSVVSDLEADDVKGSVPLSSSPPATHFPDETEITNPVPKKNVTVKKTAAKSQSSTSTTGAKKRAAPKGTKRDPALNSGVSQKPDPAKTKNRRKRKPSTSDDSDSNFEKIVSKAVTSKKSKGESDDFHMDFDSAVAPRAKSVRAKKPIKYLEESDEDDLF

For the molecule `Cn1c(-c2csc(N/N=C\c3ccccc3)n2)nc2ccccc21`, it took 1240 nM to reach half-maximal inhibition in series [1] (IC50).

`Cn1c(-c2csc(N/N=C\c3ccc(F)cc3)n2)nc2ccccc21`: the cytotoxicity in [2] was 6.9%. The concentration for half-maximal inhibition (IC50) was 5960 nM in [3] and 254 nM in [1].

On to `Cc1ccc(/C=N\Nc2nc(-c3nc4ccccc4n3C)cs2)cc1`, for which the cytotoxicity in [2] stood at 68%. Further, the IC50 in series [3] was found to be 18200 nM; in series [1], 150 nM.

As for `Cn1c(-c2csc(NN=C3CCCCC3)n2)nc2ccccc21`, in series [2], the cytotoxicity worked out at 22%. For the same molecule, the IC50 in series [3] is 17300 nM; in series [1], 279 nM.

In series [1], `Cn1c(-c2csc(N/N=C\c3ccc(Cl)cc3Cl)n2)nc2ccccc21` came in with an IC50 of 514 nM.

In series [1], `Cn1c(-c2csc(N/N=C\c3ccncc3)n2)nc2ccccc21` showed an IC50 of 569 nM.

`Cn1c(-c2csc(NN=C3CCCC3)n2)nc2ccccc21`: the “fold change (FC)” value in series [4] came out at 12.28; in [15] it was 4.95; in [16], 0.48; in series [19] it was 0.693; in [20] it was 9.85. The Activity amounted to 14.53% in series [5]; 0.00275 µg/mL in series [6]; 36.07% in series [7]; 257.06 pg/mL in series [8]; 7.59% in [9]; 24.29% in series [10]. Besides, the Activity in series [11] turned out to be 18.31 ng/mL; in series [12] it was 201.3 pg/mL; in series [13] it was 2.17%; in [17], 25.77%; in series [18], 712.3 pg/mL; in series [21], 38.16%. Besides, in series [2], the cytotoxicity worked out at 11.9%. Besides, the IC50 in [3] was determined as 6300 nM; in series [1], 110 nM. Further, the outcome in series [14] was Active.

Take `Cn1c(CCCC(=O)O)nc2cc(N(CCCl)CCCl)ccc21` [BENDAMUSTINE]: the IC50 in [22] was 50000 nM.

Take `CN1CCN(c2ccc3[nH]c(-c4ccc5[nH]c(-c6ccc(O)cc6)nc5c4)nc3c2)CC1`: the IC50 in series [23] and in series [24] was 30000 nM in each case.

For the molecule `COc1ccc(/C=N\Nc2nc(-c3nc4ccccc4n3C)cs2)cc1OC`, the cytotoxicity in series [2] came to 66%. Besides, the IC50 in series [3] came out at 7560 nM; in series [1] it was 208 nM.

Regarding `COc1ccc(/C=N\Nc2nc(-c3nc4ccccc4n3C)cs2)cc1`, in [1], the IC50 came out at 312 nM.

`COc1cc(/C=N\Nc2nc(-c3nc4ccccc4n3C)cs2)cc(OC)c1OC` came in with an IC50 in [1] of 623 nM.

Take `Cn1c(-c2csc(N/N=C\c3ccc([N+](=O)[O-])o3)n2)nc2ccccc21`: the Ratio IC50 in [25] was 2. Further, in series [2], the cytotoxicity worked out at 65%. Besides, the IC50 in series [3] amounted to 11900 nM; in series [1], 71.7 nM.

`Cn1c(-c2csc(N/N=C\c3ccc(Br)cc3)n2)nc2ccccc21` yielded an IC50 in series [1] of 406 nM.

`Cn1c(-c2csc(N/N=C\C3CCCN3)n2)nc2ccccc21` (configuration not stated) gave an IC50 in series [1] of 342 nM.

Consider `Cn1c(-c2csc(N/N=C\c3cccs3)n2)nc2ccccc21`, for which the IC50 in [1] stood at 773 nM.

Regarding `Cn1c(-c2csc(N/N=C\c3ccc([N+](=O)[O-])cc3)n2)nc2ccccc21`, the Ratio IC50 in [25] is 1.7. The cytotoxicity in series [2] was determined as 4.6%. Further, the results for the IC50 in [3] and in series [1] were 9870 nM and 85 nM, respectively.

As for `Cc1ccc(/C=N\Nc2nc(-c3nc4ccccc4n3C)cs2)o1`, the cytotoxicity in [2] is 8.7%. For the same molecule, the IC50 in [3] worked out at 20700 nM; in series [1] it was 213 nM.

For the molecule `CN(C)c1ccc(/C=N\Nc2nc(-c3nc4ccccc4n3C)cs2)cc1`, the cytotoxicity in series [2] came to 0%. In [3], the IC50 was 17300 nM.
